The record followed here is patent publication US9402925B2, “Probes and methods of imaging a bacterial infection” (The Board of Trustees of the Leland Stanford Junior …, priority 2013, dated 2016).

In series [1] the test system is E-.Coli (ATCC33456). Kind of series: Competition assay: blocking of 18F-fluoromaltose uptake in E. coli by co-incubation. The format is cell-based, Escherichia coli. Particulars: co-incubation with 1 mM. As for the experimental part:
(§1) A strain of E-.Coli (ATCC33456) and a mammalian cell line (EL4) were exposed to 1-[^18F]-fluoromaltose or [^18F]-6-fluoromaltose. All bacteria and cells were then washed in 1×PBS, lysed and radioactivity of each well was determined by gamma counter for ^18F samples. All results were done in triplicate and are expressed in counts per minute (CPM), standard errors were determined and t tests performed. The uptake in E. Coli could also be blocked by co-incubation with 1 mM of cold maltose or 1 mM of 1-fluoromaltose.
(§2) To evaluate the ability of bacteria and cells to uptake [^18F]-6-fluoromaltose (7) and 1-[^18F]-fluoromaltose (11), a strain of E. Coli and a mammalian cell line (EL4) were exposed to 7 and 11. […] The uptake in E. Coli could also be blocked by co-incubation with 1 mM of cold maltose (98% blocking, p<0.0003), the natural substrate of the transporter. Likewise, ^3H-maltose uptake in E. Coli was blocked both with 1 mM maltose and 1-fluoromaltose (FIG. 2.4).

The test system of another series is Escherichia coli. The experiment in a line: Competition assay: blocking of 3H-maltose uptake by E. coli. Particulars: co-incubation, 1 mM; 3H-labeled maltose uptake for 10 mins; FIG. 2.4. The format is cell-based. The procedure: Coli and a mammalian cell line (EL4) were exposed to [^18F] 7. […] 7 by E. […] The uptake in E. Coli could also be blocked by co-incubation with 1 mM of cold maltose (98% blocking, p<0.0003), the natural substrate of the transporter. […] Here we allowed bacteria to take up ^3H-labeled maltose for 10 mins.

Series [2] in a line: In vivo stability of 1-[18F]fluoromaltose.
Series [3] deals with mammalian cell line (EL4). Kind of series: In vitro uptake assay in mammalian cell line EL4. In kind it is cell-based. The following applies: 60 minutes post incubation with tracer. The procedure:
as §1, §2

Series [4] concerns E-.Coli (ATCC33456). The experiment in a line: In vitro uptake assay in E. coli. In kind it is cell-based, Escherichia coli. Particulars: radioactivity by gamma counter, CPM, FIG. 2.3. The procedure: as §1, §2
For series [5] the following is noted: PBS, human and mouse serum at 37° C. The procedure: Serum (human or mouse) was centrifuged at about 4° C., maximum speed for about 10 min. About 330 μL of supernatant was transferred to an Eppendorf vial containing 20 μL of formulated radiolabelled 6-[^18F]fluoromaltose (50-100 μCi minimum). For control, same volume of radiolabelled compound in 330 μl PBS was used. After vortexing the radiolabelled mixtures, 70 μL aliquots transferred to Eppendorf tubes and incubated at about 37° C. At predetermine time points (e.g., 0, 5, 15, 30, 60 min) 140 μL of ice-cold methanol were added to corresponding samples to stop metabolism. After vortexing and centrifuging samples (10 min max speed), the supernatants were transferred to HPLC vials for HPLC analysis.
The percentage of intact 6-[^18F]fluoromaltose in PBS, human and mouse serum at 37° C. was determined by HPLC.

SMILES strings stand for the structures. “Also recorded” adds a separate entry of the source. Like-named read-outs stand apart in the source and are kept apart here.

As for `OC[C@H]1O[C@H](O[C@H]2[C@H](O)[C@@H](O)C(O)O[C@@H]2CO)[C@H](O)[C@@H](O)[C@@H]1O` (mixture of isomers) [maltose], the “blocking of 18F-fluoromaltose uptake in E. Coli” value in the series on E-.Coli (ATCC33456) [1] is “completely blocked”. Also, the “blocking of [18F]-6-fluoromaltose uptake in E. Coli” value in the series on E-.Coli (ATCC33456) [1] (p<0.0003) is listed as 98%. Moreover, the “blocking of 3H-maltose uptake in E. Coli” value in the series on Escherichia coli is given as “completely blocked; also recorded: effectively compete”.
For the compound `OC[C@H]1O[C@H](O[C@H]2[C@H](O)[C@@H](O)C([18F])O[C@@H]2CO)[C@H](O)[C@@H](O)[C@@H]1O` (stereo partly drawn) [1-[^18F]-fluoromaltose, 4-O-(α-D-glucopyranosyl)-1-deoxy-1-[^18F]-fluoro-D-glucopyranoside], the “stability in vivo (de-fluorination)” value in series [2] is “not stable in vivo and very fast de-fluorinated”. The “uptake of [18F]fluoride ion by the bones” value in series [2] (after de-fluorination) was “very high”.
For `OC[C@H]1O[C@H](O[C@H]2[C@H](O)[C@@H](O)C(F)O[C@@H]2CO)[C@H](O)[C@@H](O)[C@@H]1O` (stereo partly drawn) [1-fluoromaltose], the “blocking of 18F-fluoromaltose uptake in E. Coli” value in the series with E-.Coli (ATCC33456) [1] was “blocked”. Besides, the “blocking of 3H-maltose uptake in E. Coli” value in the series with Escherichia coli is listed as “completely blocked; also recorded: effectively compete”.
`OC[C@H]1O[C@H](O[C@H]2[C@H](O)[C@@H](O)C(O)O[C@@H]2C[18F])[C@H](O)[C@@H](O)[C@@H]1O` (stereo partly drawn) [6-[^18F]-fluoromaltose, 4-O-(α-D-glucopyranosyl)-6-deoxy-6-[^18F]-fluoro-D-glucopyranoside]: the “uptake by mammalian cell line (EL4)” value in series [3] is “minimal”. The “uptake by E. Coli” value in the series with E-.Coli (ATCC33456) [4] was “take up”; with E-.Coli (ATCC33456) [4] (listed as [^18F]-6-fluoromaltose), “time dependent”. Moreover, the “percentage intact 6-[18F]fluoromaltose” value in series [5] (1 h) is on record as approximately 96%; in series [5] (2 h) it was approximately 65%.
